In US10519125B2, “Flavagline derivatives” (PIERRE FABRE MEDICAMENT, priority 2014, dated 2019):

Key:
[1] = test system: MDA-MB-231 human tumor xenograft; experiment: Antitumor activity, subcutaneous MDA-MB-231 breast cancer xenografts in SCID mice; assay type: in vivo; conditions: for Activity: q1d5 × 3, MDA-MB-231; for Deaths (%): q1d5 × 3, SCID mice
Description: Subcutaneous xenografts were established with MDA-MD-231 breast cancer cells (ATCC: HTB-26) in SCID mice (Harlan, U.K.). The animals were treated and cared after in accordance with the Guide For the Care and Use of Laboratory Animals (National Research Council, 1996) and with European Directive 86/609/EEC, under the supervision of a staff expert authorized to conduct experimental studies with laboratory animals.
All the experiments were conducted pursuant to French and local regulations (Department of Veterinary Services, Haute-Garonne, Toulouse) according to the directives of an ethics committee, based on the UKCCCR Guidelines for the Welfare of Animals in Experimental Neoplasia, as indicated above. The implantation of MDA-MB-231 human tumor fragments is carried subcutaneously in the flanks of SCID mice using a trocar and, for the study of tumor growth, the tumors are allowed to reach a median volume of 70-130 mm^3 before starting the studies.
After randomization in the treatment cages, the inhibitors were administered intravenously according to a g1d5×3 treatment scheme (5 injections per week for 3 weeks). The mice were monitored and weighed daily. The tumors were measured with a slide caliper and the tumor volumes (mm^3) were estimated using the following formula: volume=0.5 (length×width^2). Each experimental group consists of 5 individuals. The efficacy of the treatment was evaluated by analysis of the measurement of the median volume of the treated tumors compared with the median volume of the tumors receiving only carrier (control). The T/C evaluation criterion corresponds to: [(median volume of the treated group, T/median volume of the control group, C)×100]. This T/C ratio is expressed as a percentage. The optimal T/C value corresponds to the ratio which reflects the maximum inhibition of growth obtained during the study. The maximum gains or losses of weight, expressed as a percentage of the initial weight of the animals, as well as the percentage of drug-related deaths (i.e., the percentage of treated animals that died before the assessment) were used to provide an evaluation of the toxicity of the compounds. In accordance with the NCI (National Cancer Institute) criterion, a dose is deemed toxic if it induces weight loss greater than −20% relative to the initial weight of the mouse or if it induces more than 20% deaths (Corbett et al. J Exp Ther Oncol 1996, 1:95-108).

[2] = test system: HCT116 line (human colon cancer cell line); experiment: Antiproliferative (cytotoxic) activity on HCT116 line, ATPLite cell viability, 72 hours; assay type: cell-based; conditions: HCT-116, HCT116, 72 hours after addition, ATPLite, read-out: HCT116 (EC50)
Description: 2.1. Antiproliferative Activity of the Compounds According to the Invention (IC50 in M)
Culture of Lines and Measurement of Cell Viability:
The HCT116 line (ATCC, CCL-247) derived from colon cancer was cultured in MEM (Minimum Essential Medium Eagle) supplemented with 2 mM L-glutamine (Sigma, G7513), 5% fetal calf serum (Sigma, F7524) and antibiotics (Sigma, A59-55). The protocol for determining cytotoxic activity consists in seeding cells on 96-well plates (Perkin Elmer, 6005668) at a density of 1500 cells per well. After 24 hours of incubation, the test compound is applied in each well, using serial dilutions in the solvent dimethylsulfoxide (DMSO) (Sigma, D8418), from 10 mM stock solutions in 100% DMSO. Each dilution was added to the cells 24 hours after seeding. Under these conditions, the final solvent concentration is 0.1% DMSO. A reading of cell proliferation was carried out 72 hours after addition of the products with the ATPLite™ kit (Perkin Elmer, 6016947) and according to the manufacturer's recommendations. The analysis of the proliferation results was carried out by comparison with conditions where only the carrier solvent (culture medium, 0.1% DMSO) was added to the cells. The dose-response curves obtained were analyzed using the PRISM 4.03 software (GraphPad Software Inc.), or by an equivalent analytical method, to determine the concentration of each compound which inhibits 50% of cell proliferation (EC50).
By way of example, the cytotoxic properties of several compounds of the invention evaluated on the HCT116 line (human colon cancer cell line) are reported in Table 1.

[3] = Mus musculus, MDA-MB-231, iv, read-out: Opt. T/C (%)

Row | Structure (SMILES) | Activity ([1]; 1.4 mg/kg intravenously) | Deaths (%) ([1]; 1.4 mg/kg intravenously) | response vs control in vivo at 1.4 mg/kg [1, 3] | EC50 [2] | Activity ([1]; 0.2 mg/kg intravenously) | Deaths (%) ([1]; 0.2 mg/kg intravenously) | response vs control in vivo at 0.2 mg/kg [1, 3] | Activity ([1]; 0.5 mg/kg intravenously) | Deaths (%) ([1]; 0.5 mg/kg intravenously) | Activity ([1]; 0.7 mg/kg intravenously) | Deaths (%) ([1]; 0.7 mg/kg intravenously) | Activity ([1]; 1 mg/kg intravenously) | Deaths (%) ([1]; 1 mg/kg intravenously) | response vs control in vivo at 0.5 mg/kg [1, 3] | response vs control in vivo at 0.7 mg/kg [1, 3] | toxicity ([1]; above a dose of 0.7 mg/kg) | antitumor activity ([1]; below a dose of 0.7 mg/kg)
1 | COc1ccc([C@@]23Oc4cc(OC)cc(OC)c4[C@]2(O)[C@@H]2OC(=S)N[C@@H]2[C@H]3c2ccccc2)cc1 (racemic) [Compound 46, rac-(3aR,4R,4aR,9bS,9cR)-9b-hydroxy-7,9-dimethoxy-4a-(4-methoxyphenyl)-4-phenyl-3,3a,4,4a,9b,9c-hexahydro-2H-benzofuro[3′,2′:3,4]cyclopenta[1,2-d]oxazole-2-thione] | Active | 0% | 39% | 2.59 nM |  |  |  |  |  |  |  |  |  |  |  |  | 
2 | COC(=O)[C@H]1[C@@H](O)[C@@]2(O)c3c(OC)cc(OCCN)cc3O[C@@]2(c2ccc(OC)cc2)[C@@H]1c1ccccc1 (racemic) [Compound 2, rac-(1R,2R,3S,3aR,8bS)-methyl 6-(2-aminoethoxy)-1,8b-dihydroxy-8-methoxy-3a-(4-methoxyphenyl)-3-phenyl-2,3,3a,8b-tetrahydro-1H-cyclopenta[b]benzofuran-2-carboxylate] |  |  |  | 4.03 nM | Active | 0% | 37% |  |  |  |  |  |  |  |  |  | 
3 | COC(=O)[C@H]1[C@@H](O)[C@@]2(O)c3c(OC)cc(O[C@@H]4O[C@@H]([C@H](O)CO)CO[C@H]4OC)cc3O[C@@]2(c2ccc(OC)cc2)[C@@H]1c1ccccc1 [silvestrol, reference compound] | Toxic | 100% |  | 2.46 nM | No activity | 0% | 92% | No activity | 0% | Toxic | 40% | Toxic | 100% | 83% | 63% | highly toxic | no antitumor activity
